# Columns and labels:
# Format in all cases: physicochemical
# [1] = solubility of (−)-galanthamine hydrobromide in water
# Procedure: (§1) It has been further observed that (−)-galanthamine hydrobromide can be further purified with high yield and without degradation of the material by crystallization in water in the presence of ammonium bromide. Lower yields are obtained using water in the absence of ammonium bromide due to the high solubility of (−)-galanthamine hydrobromide in water (about 50 mg/mL at room temperature and 300 mg/mL at reflux temperature).
# [2] = epimerization of (−)-galanthamine under acidic conditions; conditions: under acidic conditions (presence of hydrobromic acid)
# Procedure: as §1
# [3] = racemization in THF solution; conditions: THF solution at approximately 0° C.
# Procedure: Advantage of this aspect of invention include, among others, the reduction reaction of (−)-narwedine-BF3 complex can be carried out at approximately 0° C.
compound,measurement,setting,value
Br.COc1ccc2c3c1O[C@H]1C[C@@H](O)C=C[C@@]31CCN(C)C2 [(−)-galanthamine hydrobromide],solubility in water,[1]; at reflux temperature,~300 mg/mL
same,solubility in water,[1]; at room temperature,about 50 mg/mL
"COc1ccc2c3c1O[C@H]1C[C@@H](O)C=C[C@@]31CCN(C)C2 [(−)-galanthamine, (4aS,6R,8aS)-4a,5,9,10,11,12-hexahydro-3-methoxy-11-methyl-6H-benzofuro[3a,3,2-ef][2]benzazepin-6-ol]",epimerization to (−)-epigalanthamine (stability),[2],rapidly epimerized
(−)-narwedine-BF3 complex [(−)-narwedine.BF3 complex],racemization (configurational stability),[3],racemizes very slowly
